One compound from patent publication US20070196514A1, “Prostate cancer treatment with glycogen synthase kinase-3beta inhibitors” (priority 2006, published 2007) can be followed below.

Structures are written as SMILES.

For experiment [1], the system named is LNCaP cells. As to the kind of experiment: MTT cell growth assay. In kind it is cell-based, human. As to conditions: equimolecular concentrations of LiCl, NaCl, KCl, three days. The method, then: For MTT-based cell growth assays, cells seeded in 96-well plates were serum-starved for 48 hours, and were then treated with vehicle or different reagents for different time periods as indicated in the figures. MTT assay were carried out using a pre-assembled kit (Sigma) according to the manufacturer's manual.
To rule out the eventual intervention of the chloride anion and the osmotic disturbance, the effect of LiCl was compared with sodium chloride (“NaCl”) and potassium chloride (“KCl”) at equimolecular concentrations in both LNCaP and PC-3 cell lines. In addition, the androgen-insensitive C4-2 cell line was included. To easily handle the experiments while multiple comparisons were taken in place, a MTT assay was used to assess cell growth.
Lastly, two GSK-3β-specific small chemical inhibitors, SB216763 and BIO, were used to verify that LiCl-induced suppression of cell growth is due to GSK-3β inhibition. LNCaP cells were seeded as above and then treated with increasing doses of the inhibitors in a full culture medium. Cell growth was assessed three days later by MTT assay.
(In general: Formazan colour is commonly taken as a measure of viable cells.)

Experiment [2] relates to LNCaP cells. As to the kind of experiment: cell cycle analysis by flow cytometry (PI). It counts as cell-based, human. As to conditions: serum-starved 24 hours then full media with LiCl up to 24 hours. The method, then:
For cell cycle analysis, serum-starved cells were left untreated or treated with different inhibitors for various time periods as indicated in the figures. After trypsinization, the cells were fixed and stained with propidium iodide (“PI”). Cell cycle distribution of PI-labeled cells was analyzed on a fluorescence activated cell sorter (Model EPICS XL-MCL, Beckman-Coulter Co., Fullerton, Calif.) as described previously (Miyake 2001).
LNCaP cells were first serum-starved for 24 hours, and were then released by returning them to full culture media in the presence or absence of LiCl for up to 24 hours. Cell cycle distribution was analyzed by flow cytometry (“FCM”). […] When serum was added back in the culture (the control), cells re-entered into cell cycle.
(In general: In flow cytometry, cells or beads pass a laser one at a time.)

In another experiment the test system is HEK293 cells. As to the kind of experiment: Affymetrix cDNA microarray for LiCl-induced changes. It counts as cell-based, human. As to conditions: LiCl treatment, data not shown. The method, then: Androgen-insensitive C4-2 cells and HEK293 cells were used for cDNA-based microarray analysis. After serum starvation for 24 hours, cells were left untreated or treated with LiCl (10 mM) in serum free media for 30 minutes whereas the control cells received PBS in the same media. Then 10% FBS was brought back to both control and LiCl pre-treated cells and incubated for another 6 hours. At the end of treatment, total cellular RNAs were extracted using Trizol-based protocol as described (Liao 2005).
Genechip® arrays (Affymetrix Inc, Santa Clara, Calif.) used herein contain almost 45,000 probe sets representing more than 39,000 transcripts derived from approximately 33,000 well substantial human genes. The in vitro-transcription labeling is conducted using the EnzoBio array high yield RNA transcript labeling kit (Affymetrix). Ten micrograms of total RNAs were used for the first strand cDNA synthesis using the SuperscriptChoice system (Invitrogen).
Genechips were hybridized for 16 hours at 45° C. and 60 rpm in Genechip hybridization oven Model 640. After washing the Genechip, the signal intensity was detected using the Agilent Gene Array scanner.
The most dramatic changes were down-regulation of cdc6, cdc25C, cyclins A and E, as well as up-regulation of CDK inhibitor p21^CIP1. […]

The test system of a further experiment is PC-3 xenografts. As to the kind of experiment: mouse xenograft model, protocol B (palpable tumors), with in vivo BrdU labeling and TUNEL. The arrangement: species or system nude mice. The procedure: All animal studies were conducted under an approved Institutional Animal Care and Use Committee protocol. Single cell suspensions (2×10^6 cells in 0.1 ml of RPMI1640 medium plus 10% FBS) were inoculated subcutaneously (s.c.) into the rear flanks (two sites/mouse) of 6 to 7 weeks old male nude mice (Charles River, Wilmington, Mass.). For protocol A, mice were randomly divided into two groups (5 animals each). On next day after inoculation, one group of animals received i.p. injection of LiCl at a daily dose of 2 mg/kg body weight. LiCl was dissolved in PBS. The control groups of animals received PBS alone in the same volume. Xenograft development and growth were monitored for 8 weeks. The tumor dimensions were measured twice a week. The tumor volume was calculated by the formula of L×W×H×0.5236 (Miyake 2001). At the end of treatment, xenograft tumors were extirpated, and the final tumor size and weight, as well as animal weight were measured. For protocol B, treatment began until tumor became palpable or 50 mm^3 in size, and LiCl or PBS was injected (5 animals each group) as above for a two-week course. Tumor size and weight were measured at the end of treatment. For BrdU in vivo labeling, the animals were injected i.p. with 0.5 ml of a 10-mM BrdU solution (Invitrogen) 2 hours before sacrifice. For experiments involving LNCaP-BclxL SB216763 subline cells (Liao 2005) were inoculated as above, and SB216763 treatment was started two weeks later when palpable xenografts were established. […] Tumor growth was monitored as discussed herein. […]
In protocol B, animals were treated with LiCl at 2 mg/kg for a two-week course when PC-3 xenografts were palpable or about […] in size. Tumor weight was measured at the endpoint of treatment and was compared between LiCl-treated and PBS control groups.
Next, the DNA synthesis associated with LiCl-induced tumor suppression in vivo was also investigated. DNA synthesis was measured by an in vivo BrdU incorporation assay. Meanwhile, apoptotic events, if any, were detected using TUNEL assay. […]
In general terms: Uptake of a labelled nucleoside into DNA is a usual measure of proliferation.

On to `[Cl-].[Li+]` [LiCl, Lithium chloride], for which, in the experiment with LNCaP cells [1], the “cell growth inhibition (MTT)” value is “dramatic inhibition”. Also, the “portion of S-phase cells” value in the experiment on LNCaP cells [2] is recorded as “dramatically increased”. For the same compound, the “alterations of cell cycle genes (microarray)” value with HEK293 cells is “not observed”. For the same compound, in the experiment with PC-3 xenografts (LiCl 2 mg/kg), the “TUNEL staining (apoptotic events) in xenografts, LiCl vs PBS” value is “did not show any difference”. The “BrdU labeling in xenografts vs PBS control” value in the experiment on PC-3 xenografts (in vivo BrdU incorporation, BrdU injected two hours before sacrifice) is “significantly reduced”. The “tumor weight vs PBS control” value in the experiment with PC-3 xenografts (protocol B, LiCl 2 mg/kg, two-week course on palpable xenografts) is on record as “significantly reduced”.
